# Tests used:
# Assay in all cases: Kinase panel (mobility shift)
# Assay type in all cases: biochemical
# [1] = target: EPH-A4 (Homo sapiens, UniProt P54764)
# How it was run: (§1)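 Tested at a single 5 um concentration within a 299-kinase panel, compounds were scored by electrophoretic mobility shift of a fluorescent substrate into product. Categories: A, 95% or greater; B, 90%-94%; C, 80%-89%.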
# [2] = target: T1, AXL (Homo sapiens, UniProt P30530)
# T1 sequence (P30530 26-894): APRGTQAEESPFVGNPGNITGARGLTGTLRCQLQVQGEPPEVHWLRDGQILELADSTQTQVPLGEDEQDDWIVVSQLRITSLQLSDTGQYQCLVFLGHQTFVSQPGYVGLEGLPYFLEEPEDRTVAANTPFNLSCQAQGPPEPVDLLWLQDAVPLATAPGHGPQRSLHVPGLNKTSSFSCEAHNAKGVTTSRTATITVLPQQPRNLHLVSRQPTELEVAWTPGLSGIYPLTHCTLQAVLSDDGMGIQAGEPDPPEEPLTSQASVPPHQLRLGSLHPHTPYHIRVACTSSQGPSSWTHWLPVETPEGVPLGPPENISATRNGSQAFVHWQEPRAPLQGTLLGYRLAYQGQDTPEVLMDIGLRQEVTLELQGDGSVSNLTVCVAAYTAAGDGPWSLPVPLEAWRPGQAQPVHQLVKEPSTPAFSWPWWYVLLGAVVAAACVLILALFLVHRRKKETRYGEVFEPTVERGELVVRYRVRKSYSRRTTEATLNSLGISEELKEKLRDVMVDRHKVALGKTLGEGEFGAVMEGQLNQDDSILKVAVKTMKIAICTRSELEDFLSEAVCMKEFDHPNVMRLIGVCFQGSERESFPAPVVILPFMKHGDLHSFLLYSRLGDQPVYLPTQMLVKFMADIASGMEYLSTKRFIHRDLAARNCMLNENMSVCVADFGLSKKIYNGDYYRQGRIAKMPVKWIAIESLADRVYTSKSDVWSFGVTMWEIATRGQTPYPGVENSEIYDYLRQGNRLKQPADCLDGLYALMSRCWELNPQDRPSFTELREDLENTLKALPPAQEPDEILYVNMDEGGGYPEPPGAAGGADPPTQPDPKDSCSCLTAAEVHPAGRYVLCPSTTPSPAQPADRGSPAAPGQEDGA
# How it was run: as §1
# [3] = target: KIT (Homo sapiens, UniProt P10721)
# How it was run: as §1
# [4] = target: T2, TAOK3 (Homo sapiens, UniProt Q9H2K8)
# T2 sequence (Q9H2K8 1-898): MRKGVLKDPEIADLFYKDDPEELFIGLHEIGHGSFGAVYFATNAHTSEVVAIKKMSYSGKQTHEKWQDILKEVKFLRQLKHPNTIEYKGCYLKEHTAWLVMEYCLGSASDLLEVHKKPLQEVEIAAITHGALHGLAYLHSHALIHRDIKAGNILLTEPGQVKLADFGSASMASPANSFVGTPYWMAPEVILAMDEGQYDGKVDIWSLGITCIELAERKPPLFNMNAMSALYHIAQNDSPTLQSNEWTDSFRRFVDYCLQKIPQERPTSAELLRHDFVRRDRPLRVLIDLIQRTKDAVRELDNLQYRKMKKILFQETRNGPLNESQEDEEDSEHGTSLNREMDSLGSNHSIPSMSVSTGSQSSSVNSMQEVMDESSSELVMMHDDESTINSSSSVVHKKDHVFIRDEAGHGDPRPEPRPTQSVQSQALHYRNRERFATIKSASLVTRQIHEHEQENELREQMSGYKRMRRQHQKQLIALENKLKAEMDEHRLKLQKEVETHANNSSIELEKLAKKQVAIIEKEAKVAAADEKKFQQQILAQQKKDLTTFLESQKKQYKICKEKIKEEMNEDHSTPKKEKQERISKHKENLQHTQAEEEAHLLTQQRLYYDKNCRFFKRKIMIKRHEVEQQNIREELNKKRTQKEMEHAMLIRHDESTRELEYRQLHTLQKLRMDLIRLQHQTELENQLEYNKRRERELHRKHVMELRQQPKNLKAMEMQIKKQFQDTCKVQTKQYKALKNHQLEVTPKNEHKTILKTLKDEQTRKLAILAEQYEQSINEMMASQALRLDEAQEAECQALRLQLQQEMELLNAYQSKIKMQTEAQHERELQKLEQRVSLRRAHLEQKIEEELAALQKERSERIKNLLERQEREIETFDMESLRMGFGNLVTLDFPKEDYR
# How it was run: as §1
# [5] = target: LOK (Homo sapiens, UniProt O94804); settings: at 5 um
# How it was run: as §1
# [6] = target: T3, DDR2 (Homo sapiens, UniProt Q16832)
# T3 sequence (Q16832 22-855): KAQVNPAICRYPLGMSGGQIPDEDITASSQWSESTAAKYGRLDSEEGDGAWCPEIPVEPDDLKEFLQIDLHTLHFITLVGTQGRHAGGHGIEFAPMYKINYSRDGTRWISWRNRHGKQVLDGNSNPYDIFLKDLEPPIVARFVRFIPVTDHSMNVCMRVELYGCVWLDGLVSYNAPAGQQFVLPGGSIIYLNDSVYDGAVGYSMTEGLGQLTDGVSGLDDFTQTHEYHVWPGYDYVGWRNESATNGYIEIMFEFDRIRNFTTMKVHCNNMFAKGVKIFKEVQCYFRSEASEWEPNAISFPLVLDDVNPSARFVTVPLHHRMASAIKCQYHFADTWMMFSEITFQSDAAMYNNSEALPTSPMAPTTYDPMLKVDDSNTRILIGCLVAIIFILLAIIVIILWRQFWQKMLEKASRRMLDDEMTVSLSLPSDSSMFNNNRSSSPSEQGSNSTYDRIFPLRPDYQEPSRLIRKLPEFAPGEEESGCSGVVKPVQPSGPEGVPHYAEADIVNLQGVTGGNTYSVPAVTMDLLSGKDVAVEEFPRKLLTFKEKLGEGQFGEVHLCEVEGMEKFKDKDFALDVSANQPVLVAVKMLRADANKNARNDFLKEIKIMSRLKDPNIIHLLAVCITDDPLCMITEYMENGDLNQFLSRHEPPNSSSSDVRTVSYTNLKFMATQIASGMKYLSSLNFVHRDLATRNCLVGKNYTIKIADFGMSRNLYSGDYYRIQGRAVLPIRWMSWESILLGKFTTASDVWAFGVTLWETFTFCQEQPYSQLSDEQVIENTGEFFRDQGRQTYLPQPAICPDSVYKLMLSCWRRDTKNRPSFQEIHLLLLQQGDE
# How it was run: as §1
# EPH-A4, sequence (P54764 20-986, species assumed): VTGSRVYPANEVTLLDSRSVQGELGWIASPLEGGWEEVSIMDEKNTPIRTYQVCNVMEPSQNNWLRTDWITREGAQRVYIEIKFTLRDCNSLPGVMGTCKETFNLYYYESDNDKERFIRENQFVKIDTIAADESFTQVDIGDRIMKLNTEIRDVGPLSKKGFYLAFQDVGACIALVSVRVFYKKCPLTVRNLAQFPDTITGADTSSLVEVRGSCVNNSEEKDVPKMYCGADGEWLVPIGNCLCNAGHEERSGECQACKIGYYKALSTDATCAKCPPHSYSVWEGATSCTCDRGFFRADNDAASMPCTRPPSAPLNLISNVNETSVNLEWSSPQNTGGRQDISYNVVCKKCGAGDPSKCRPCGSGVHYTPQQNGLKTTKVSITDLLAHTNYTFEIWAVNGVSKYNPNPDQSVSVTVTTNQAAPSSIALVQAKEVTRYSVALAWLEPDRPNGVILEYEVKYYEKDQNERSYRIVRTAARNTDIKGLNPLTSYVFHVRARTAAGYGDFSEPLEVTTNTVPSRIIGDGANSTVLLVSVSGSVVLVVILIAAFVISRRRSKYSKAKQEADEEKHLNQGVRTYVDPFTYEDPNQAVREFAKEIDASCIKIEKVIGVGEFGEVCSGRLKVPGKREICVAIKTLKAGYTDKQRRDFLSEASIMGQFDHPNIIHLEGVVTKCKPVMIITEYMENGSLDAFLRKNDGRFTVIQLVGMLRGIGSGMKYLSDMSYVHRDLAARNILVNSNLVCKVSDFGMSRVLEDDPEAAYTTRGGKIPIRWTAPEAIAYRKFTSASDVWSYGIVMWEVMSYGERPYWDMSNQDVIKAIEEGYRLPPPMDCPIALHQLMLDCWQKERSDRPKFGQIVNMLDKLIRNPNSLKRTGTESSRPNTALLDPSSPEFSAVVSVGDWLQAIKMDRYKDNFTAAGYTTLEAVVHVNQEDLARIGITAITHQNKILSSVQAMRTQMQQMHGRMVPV
# KIT, sequence (P10721 26-976, species assumed): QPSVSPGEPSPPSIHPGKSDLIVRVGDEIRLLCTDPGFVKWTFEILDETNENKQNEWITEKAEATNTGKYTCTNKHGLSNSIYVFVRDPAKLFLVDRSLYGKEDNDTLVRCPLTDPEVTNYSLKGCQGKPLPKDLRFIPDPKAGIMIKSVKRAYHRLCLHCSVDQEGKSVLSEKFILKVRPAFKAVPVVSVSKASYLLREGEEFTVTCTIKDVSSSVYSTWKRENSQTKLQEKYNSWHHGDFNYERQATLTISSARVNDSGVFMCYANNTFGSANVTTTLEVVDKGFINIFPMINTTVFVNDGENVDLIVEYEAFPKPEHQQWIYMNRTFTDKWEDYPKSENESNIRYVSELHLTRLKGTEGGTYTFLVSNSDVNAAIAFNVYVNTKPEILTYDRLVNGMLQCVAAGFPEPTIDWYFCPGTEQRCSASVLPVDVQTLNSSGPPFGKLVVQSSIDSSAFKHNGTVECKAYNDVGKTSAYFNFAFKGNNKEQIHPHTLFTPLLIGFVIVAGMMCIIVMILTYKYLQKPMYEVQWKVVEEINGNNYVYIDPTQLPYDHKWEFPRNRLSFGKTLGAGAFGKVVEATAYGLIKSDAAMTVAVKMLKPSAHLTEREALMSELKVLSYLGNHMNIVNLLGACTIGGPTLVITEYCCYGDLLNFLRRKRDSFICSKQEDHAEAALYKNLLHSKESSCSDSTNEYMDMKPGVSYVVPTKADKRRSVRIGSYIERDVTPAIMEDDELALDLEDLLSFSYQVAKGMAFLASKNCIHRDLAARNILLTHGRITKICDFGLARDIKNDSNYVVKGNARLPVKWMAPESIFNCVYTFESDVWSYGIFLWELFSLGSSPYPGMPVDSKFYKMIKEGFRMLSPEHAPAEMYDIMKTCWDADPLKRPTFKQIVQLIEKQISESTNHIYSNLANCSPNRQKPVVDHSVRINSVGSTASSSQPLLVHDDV
# LOK, sequence (O94804 whole entry, species assumed): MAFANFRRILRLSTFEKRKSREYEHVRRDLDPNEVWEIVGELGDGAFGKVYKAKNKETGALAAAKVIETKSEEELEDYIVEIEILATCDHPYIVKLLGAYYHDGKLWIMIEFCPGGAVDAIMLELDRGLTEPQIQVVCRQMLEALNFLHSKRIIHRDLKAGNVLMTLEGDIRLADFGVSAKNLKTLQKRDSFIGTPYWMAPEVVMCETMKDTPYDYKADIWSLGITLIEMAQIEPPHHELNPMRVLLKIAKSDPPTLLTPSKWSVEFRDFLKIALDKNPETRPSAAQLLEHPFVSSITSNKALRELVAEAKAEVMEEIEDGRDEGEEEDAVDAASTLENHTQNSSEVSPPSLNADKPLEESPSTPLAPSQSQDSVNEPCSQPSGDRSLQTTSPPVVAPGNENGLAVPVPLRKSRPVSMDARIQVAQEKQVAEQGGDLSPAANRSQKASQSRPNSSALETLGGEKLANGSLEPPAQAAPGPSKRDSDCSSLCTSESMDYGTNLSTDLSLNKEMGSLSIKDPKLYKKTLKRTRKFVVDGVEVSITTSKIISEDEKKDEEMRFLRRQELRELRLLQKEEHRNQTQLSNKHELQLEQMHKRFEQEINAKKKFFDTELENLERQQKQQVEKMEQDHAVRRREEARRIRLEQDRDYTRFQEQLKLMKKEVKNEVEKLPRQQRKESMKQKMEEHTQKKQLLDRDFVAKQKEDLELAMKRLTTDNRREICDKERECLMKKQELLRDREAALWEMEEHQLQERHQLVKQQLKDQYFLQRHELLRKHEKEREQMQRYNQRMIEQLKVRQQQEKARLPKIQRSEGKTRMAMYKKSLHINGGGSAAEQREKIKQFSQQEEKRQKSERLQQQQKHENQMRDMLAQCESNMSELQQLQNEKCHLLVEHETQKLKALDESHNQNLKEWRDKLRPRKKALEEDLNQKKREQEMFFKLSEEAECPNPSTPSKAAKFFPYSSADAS
SMILES,inhibition at 5 µM [1] [%],inhibition at 5 µM [2] [%],inhibition at 5 µM [3] [%],inhibition at 5 µM [4] [%],"inhibition of kinase activity, LOK [5]",inhibition at 5 µM [6] [%]
CNC(=O)c1cc(Oc2ccc(NC(=O)c3nc(SC)oc3-c3ccc(Cl)s3)cc2)ccn1 [Compound 5],< 50,< 50,< 50,< 50,E (category E is less than 50%),80 to 89
CNC(=O)c1cc(Oc2ccc(NC(=O)c3nc(SC)oc3-c3ccc(OC)cc3)cc2)ccn1 [Compound 7],< 50,< 50,< 50,< 50,C (C=80%-89% at 5 um),80 to 89
CNC(=O)c1cc(Oc2ccc(NC(=O)c3nc(SC)oc3-c3ccc(F)s3)cc2F)ccn1 [Compound 16],< 50,< 50,< 50,< 50,D (category D for 50-79),< 50
CNC(=O)c1cc(Oc2ccc(NC(=O)c3nc(SC)oc3-c3ccc(F)cc3F)cc2F)ccn1 [Compound 12],50 to 79,50 to 79,50 to 79,50 to 79,D (category D for 50-79),80 to 89
CNC(=O)c1cc(Oc2c(F)cc(NC(=O)c3nc(NC)sc3-c3ccc(F)cc3)cc2F)ccn1 [Compound 19],50 to 79,< 50,50 to 79,50 to 79,D (category D for 50-79),80 to 89
CSc1nc(C(=O)Nc2ccc(Oc3ccnc(-c4cnn(C)c4)c3)c(F)c2)c(-c2ccc(F)cc2)o1 [Compound 11],90 to 94,90 to 94,80 to 89,< 50,B (B=90%-94% at 5 um),≥ 95
CNC(=O)c1cc(Oc2ccc(NC(=O)c3nc(OC)oc3-c3ccc(F)cc3)cc2F)ccn1 [Compound 15],50 to 79,50 to 79,50 to 79,< 50,C (C=80%-89% at 5 um),90 to 94
CNC(=O)c1cc(Oc2ccc(NC(=O)c3nc(NC)oc3-c3ccc(F)s3)cc2F)ccn1 [Compound 17],< 50,< 50,< 50,< 50,D (category D for 50-79),50 to 79

# The remaining lines, values ahead:
inhibition at 5 µM [1] [%],inhibition at 5 µM [2] [%],inhibition at 5 µM [3] [%],inhibition at 5 µM [4] [%],"inhibition of kinase activity, LOK [5]",inhibition at 5 µM [6] [%],SMILES
80 to 89,50 to 79,50 to 79,80 to 89,C (C=80%-89% at 5 um),80 to 89,CNC(=O)c1cc(Oc2ccc(NC(=O)c3nc(C4CC4)oc3-c3ccc(F)cc3)cc2F)ccn1 [Compound 26]
50 to 79,< 50,< 50,50 to 79,E (category E is less than 50%),50 to 79,CSc1nc(C(=O)Nc2ccc(Oc3ccnc(C(=O)NCCN(C)C)c3)c(F)c2)c(-c2ccc(F)cc2)o1 [Compound 41]
< 50,< 50,< 50,< 50,E (category E is less than 50%),< 50,CNC(=O)c1ccc(Oc2ccc(NC(=O)c3nc(Cl)oc3-c3ccc(F)cc3)c(F)c2)cn1 [Compound 36]
< 50,< 50,< 50,< 50,C (C=80%-89% at 5 um),80 to 89,CNC(=O)c1cc(Oc2ccc(NC(=O)c3nc(OC)oc3-c3ccc(F)c(F)c3)cc2F)ccn1 [Compound 24]
< 50,< 50,< 50,< 50,E (category E is less than 50%),50 to 79,CSc1nc(C(=O)Nc2ccc(Oc3ccnc(C(=O)NC4CCN(C)CC4)c3)c(F)c2)c(-c2ccc(F)cc2)o1 [Compound 42]
50 to 79,80 to 89,< 50,50 to 79,B (B=90%-94% at 5 um),80 to 89,CNC(=O)c1cc(Oc2ccc(NC(=O)c3nc(OC4CC4)oc3-c3ccc(F)cc3)cc2F)ccn1 [Compound 32]
90 to 94,50 to 79,50 to 79,80 to 89,A (A=95% or greater at 5 um),90 to 94,CNC(=O)c1cc(Oc2ccc(NC(=O)c3nc(COC)oc3-c3ccc(F)cc3)cc2F)ccn1 [Compound 30]
< 50,< 50,< 50,50 to 79,E (category E is less than 50%),50 to 79,CNC(=O)c1cc(Oc2ccc(NC(=O)c3nc(NC)sc3-c3ccc(F)cc3F)cc2F)ccn1 [Compound 21]
< 50,< 50,< 50,< 50,E (category E is less than 50%),< 50,CSc1nc(C(=O)Nc2ccc(Oc3ccnc(C(=O)NC4COC4)c3)c(F)c2)c(-c2ccc(F)s2)o1 [Compound 28]

# Reference: patent US11629143B2, “HipK4 inhibitors and uses thereof” (Vibliome Therapeutics, LLC, priority 2020, dated 2023)
